The test system of this test is MV-4-11 cells. Description: Gene expression microarray analysis (Affymetrix PrimeView) and GSEA. Format: cell-based, human. Further details: RFU PODN (11730768_x_at) / Fold change /veh PODN (11730768_x_at) / RFU LINC00158 (11744669_a_at) / Fold change /veh LINC00158 (11744669_a_at) / RFU DUSP10 (11751237_a_at) / Fold change /veh DUSP10 (11751237_a_at) / RFU ID3 (11757404_x_at) / Fold change /veh ID3 (11757404_x_at) / RFU PLEKHG5 (11737974_s_at) / Fold change /veh PLEKHG5 (11737974_s_at) / RFU LRRC4B (11730491_at) / Fold change /veh LRRC4B (11730491_at) / RFU GIMAP4 (11747438_a_at) / Fold change /veh GIMAP4 (11747438_a_at) / RFU KRT8 (11758183_x_at) / Fold change /veh KRT8 (11758183_x_at) / RFU CNN1 (11734310_a_at) / Fold change /veh CNN1 (11734310_a_at) / RFU VPS37D (11726825_at) / Fold change /veh VPS37D (11726825_at) / RFU C10orf10 (11716522_x_at) / Fold change /veh C10orf10 (11716522_x_at) / RFU KIR2DL2 /// KIR2DL4 /// KIR2DL5A /// KIR2DL5B /// KIR2DS1 /// KIR2DS2 /// KIR2DS3 /// KIR2DS4 /// KIR3DL3 /// KIR3DL3 /// KIR3DS1 (11738374_at) / Fold change /veh KIR2DL2 /// KIR2DL4 /// KIR2DL5A /// KIR2DL5B /// KIR2DS1 /// KIR2DS2 /// KIR2DS3 /// KIR2DS4 /// KIR3DL3 /// KIR3DL3 /// KIR3DS1 (11738374_at) / RFU C1QL1 (11718748_at) / Fold change /veh C1QL1 (11718748_at) / RFU TMPRSS4 (11747572_a_at) / Fold change /veh TMPRSS4 (11747572_a_at) / RFU HAMP (11756126_x_at) / Fold change /veh HAMP (11756126_x_at) / RFU RNFT2 (11725882_a_at) / Fold change /veh RNFT2 (11725882_a_at) / RFU NR4A2 (11747474_a_at) / Fold change /veh NR4A2 (11747474_a_at) / RFU ABCC12 (11746883_a_at) / Fold change /veh ABCC12 (11746883_a_at) / RFU TMEM136 (11760407_x_at) / Fold change /veh TMEM136 (11760407_x_at) / RFU CLDN22 /// WWC2 (11732394_at) / Fold change /veh CLDN22 /// WWC2 (11732394_at) / RFU HLA-DPB1 (11760878_x_at) / Fold change /veh HLA-DPB1 (11760878_x_at) / RFU SPINT1 (11716480_a_at) / Fold change /veh SPINT1 (11716480_a_at) / RFU GAP43 (11754022_s_at) / Fold change /veh GAP43 (11754022_s_at) / RFU A4GNT (11735810_at) / Fold change /veh A4GNT (11735810_at) / RFU PRB3 (11715151_x_at) / Fold change /veh PRB3 (11715151_x_at) / RFU TUBB4B (11761932_at) / Fold change /veh TUBB4B (11761932_at) / RFU CAPN14 (11732068_a_at) / Fold change /veh CAPN14 (11732068_a_at) / RFU TMCC2 (11721928_a_at) / Fold change /veh TMCC2 (11721928_a_at) / RFU IRGQ (11745062_a_at) / Fold change /veh IRGQ (11745062_a_at) / RFU FAM174B (11720279_a_at) / Fold change /veh FAM174B (11720279_a_at) / RFU TMPRSS4 (11748680_a_at) / Fold change /veh TMPRSS4 (11748680_a_at) / RFU FAM212B (11763350_a_at) / Fold change /veh FAM212B (11763350_a_at) / RFU PLEKHG5 (11743358_a_at) / Fold change /veh PLEKHG5 (11743358_a_at) / RFU ZSCAN30 (11745921_a_at) / Fold change /veh ZSCAN30 (11745921_a_at) / RFU CMKLR1 (11741424_a_at) / Fold change /veh CMKLR1 (11741424_a_at) / RFU LOC101060620 /// MAPK8IP1 (11723275_at) / Fold change /veh LOC101060620 /// MAPK8IP1 (11723275_at) / RFU SPTSSB (11747773_x_at) / Fold change /veh SPTSSB (11747773_x_at) / RFU PRSS12 (11739890_at) / Fold change /veh PRSS12 (11739890_at) / RFU BIN1 (11741810_x_at) / Fold change /veh BIN1 (11741810_x_at) / RFU WNT11 (11732464_a_at) / Fold change /veh WNT11 (11732464_a_at) / RFU C10orf10 (11716521_a_at) / Fold change /veh C10orf10 (11716521_a_at) / RFU C5orf56 (11738089_at) / Fold change /veh C5orf56 (11738089_at) / RFU CYB561 (11721691_x_at) / Fold change /veh CYB561 (11721691_x_at) / RFU ANKRD19P (11752326_a_at) / Fold change /veh ANKRD19P (11752326_a_at) / RFU OR2T12 /// OR2T33 /// OR2T8 (11738714_s_at) / Fold change /veh OR2T12 /// OR2T33 /// OR2T8 (11738714_s_at) / RFU VCAN (11748164_a_at) / Fold change /veh VCAN (11748164_a_at) / RFU JSRP1 (11732532_at) / Fold change /veh JSRP1 (11732532_at) / RFU KRTAP10-11 (11738290_x_at) / Fold change /veh KRTAP10-11 (11738290_x_at) / RFU MYO3A (11730013_a_at) / Fold change /veh MYO3A (11730013_a_at) / RFU EBF3 (11725865_a_at) / Fold change /veh EBF3 (11725865_a_at) / RFU CAMK2N1 (11719241_x_at) / Fold change /veh CAMK2N1 (11719241_x_at) / RFU C5orf56 (11738088_a_at) / Fold change /veh C5orf56 (11738088_a_at) / RFU OLFML3 (11715873_a_at) / Fold change /veh OLFML3 (11715873_a_at) / RFU LOC100653217 /// NTM (11731650_a_at) / Fold change /veh LOC100653217 /// NTM (11731650_a_at) / RFU MAPK11 (11762145_a_at) / Fold change /veh MAPK11 (11762145_a_at) / RFU FIZ1 (11724087_x_at) / Fold change /veh FIZ1 (11724087_x_at) / RFU OASL (11726364_x_at) / Fold change /veh OASL (11726364_x_at) / RFU SOX15 (11748057_x_at) / Fold change /veh SOX15 (11748057_x_at) / RFU CD79A (11719716_a_at) / Fold change /veh CD79A (11719716_a_at) / RFU HIST1H1D (11736915_at) / Fold change /veh HIST1H1D (11736915_at) / RFU CASKIN2 (11723855_a_at) / Fold change /veh CASKIN2 (11723855_a_at) / RFU LOC730098 (11760151_x_at) / Fold change /veh LOC730098 (11760151_x_at) / RFU OR4N2 (11742367_at) / Fold change /veh OR4N2 (11742367_at) / RFU PRRT2 (11749266_a_at) / Fold change /veh PRRT2 (11749266_a_at) / RFU SNX32 (11753110_a_at) / Fold change /veh SNX32 (11753110_a_at) / RFU CDHR5 (11726645_a_at) / Fold change /veh CDHR5 (11726645_a_at) / RFU RCAN1 (11760418_a_at) / Fold change /veh RCAN1 (11760418_a_at) / RFU FAM167A (11723789_a_at) / Fold change /veh FAM167A (11723789_a_at) / RFU FAM26E (11764081_at) / Fold change /veh FAM26E (11764081_at) / RFU ISYNA1 (11749810_s_at) / Fold change /veh ISYNA1 (11749810_s_at) / RFU ACY1 (11761880_at) / Fold change /veh ACY1 (11761880_at) / RFU 11764098_at / Fold change /veh 11764098_at / RFU SAMD14 (11745864_x_at) / Fold change /veh SAMD14 (11745864_x_at) / RFU NPB (11741838_a_at) / Fold change /veh NPB (11741838_a_at) / RFU TMPRSS6 (11731388_a_at) / Fold change /veh TMPRSS6 (11731388_a_at) / RFU KRTAP10-2 (11738614_at) / Fold change /veh KRTAP10-2 (11738614_at) / RFU ARHGAP8 /// PRR5-ARHGAP8 (11727945_x_at) / Fold change /veh ARHGAP8 /// PRR5-ARHGAP8 (11727945_x_at) / RFU KRTAP5-7 /// NADSYN1 (11734609_at) / Fold change /veh KRTAP5-7 /// NADSYN1 (11734609_at) / RFU RASL12 (11751679_a_at) / Fold change /veh RASL12 (11751679_a_at) / RFU CDKN2B (11736163_a_at) / Fold change /veh CDKN2B (11736163_a_at) / RFU PRF1 (11729649_at) / Fold change /veh PRF1 (11729649_at) / RFU, ZNF638 /// ZNF638-IT1 / Fold change vs veh, ZNF638 /// ZNF638-IT1 / RFU, PANK3 / Fold change vs veh, PANK3 / RFU, SH3YL1 / Fold change vs veh, SH3YL1 / RFU, ZEB2 / Fold change vs veh, ZEB2 / RFU, NRIP1 / Fold change vs veh, NRIP1 / RFU, PTTG1IP / Fold change vs veh, PTTG1IP / RFU, CAPN2 / Fold change vs veh, CAPN2 / RFU, MED14 / Fold change vs veh, MED14 / RFU, SNORA58 / Fold change vs veh, SNORA58 / RFU, C1orf63 / Fold change vs veh, C1orf63 / RFU, LRRFIP1 / Fold change vs veh, LRRFIP1 / RFU, NDUFAF7 / Fold change vs veh, NDUFAF7 / RFU, SLC12A2 / Fold change vs veh, SLC12A2 / RFU, IBTK / Fold change vs veh, IBTK / RFU, ESF1 / Fold change vs veh, ESF1 / Fold change vs veh, TMEM50B / RFU, TAOK1 / Fold change vs veh, TAOK1 / RFU, ACBD3 / Fold change vs veh, ACBD3 / RFU, TMA16 / Fold change vs veh, TMA16 / RFU, RWDD3 / Fold change vs veh, RWDD3 / RFU, BCAT1 / Fold change vs veh, BCAT1 / RFU, EDEM3 / Fold change vs veh, EDEM3 / RFU, TMEM33 / Fold change vs veh, TMEM33 / RFU, WDR75 / Fold change vs veh, WDR75 / RFU, AHCTF1 / Fold change vs veh, AHCTF1 / RFU, TFRC / Fold change vs veh, TFRC / RFU, ZDHHC17 / Fold change vs veh, ZDHHC17 / RFU, NOM1 / Fold change vs veh, NOM1 / RFU, ARL8B / Fold change vs veh, ARL8B / RFU, ZBTB11 / Fold change vs veh, ZBTB11 / RFU, TAMM41 / Fold change vs veh, TAMM41 / RFU, KIAA1704 /// LOC100996395 / Fold change vs veh, KIAA1704 /// LOC100996395 / RFU, ING1 / Fold change vs veh, ING1 / RFU, TRMT61B / Fold change vs veh, TRMT61B / RFU, FUBP3 / Fold change vs veh, FUBP3 / RFU, TP53 / Fold change vs veh, TP53 / RFU, TNKS2 / Fold change vs veh, TNKS2 / RFU, ZFP14 / Fold change vs veh, ZFP14 / RFU, ACTR2 / Fold change vs veh, ACTR2 / RFU, PPP3R1 / Fold change vs veh, PPP3R1 / RFU, PIK3R1 / Fold change vs veh, PIK3R1 / RFU, HNRNPA1 / Fold change vs veh, HNRNPA1 / RFU, RNF170 / Fold change vs veh, RNF170 / RFU, ZNF28 / Fold change vs veh, ZNF28 / RFU, RNGTT / Fold change vs veh, RNGTT / RFU, OGT / Fold change vs veh, OGT / RFU, BRD1 / Fold change vs veh, BRD1 / RFU, MARS / Fold change vs veh, MARS / RFU, ZNF655 / Fold change vs veh, ZNF655 / RFU, FAHD1 / Fold change vs veh, FAHD1 / RFU, BDP1 / Fold change vs veh, BDP1 / RFU, LRRCC1 / Fold change vs veh, LRRCC1 / RFU, ARID1A / Fold change vs veh, ARID1A / RFU, ZNF146 / Fold change vs veh, ZNF146 / RFU, ZNF330 / Fold change vs veh, ZNF330 / RFU, GPN3 / Fold change vs veh, GPN3 / RFU, C9orf123 / Fold change vs veh, C9orf123 / RFU, N4BP2L2 / Fold change vs veh, N4BP2L2 / RFU, ARFIP1 / Fold change vs veh, ARFIP1 / RFU, FAM179B / Fold change vs veh, FAM179B / RFU, BCL10 / Fold change vs veh, BCL10 / RFU, UHRF1BP1L / Fold change vs veh, UHRF1BP1L / RFU, BET1 / Fold change vs veh, BET1 / RFU, CNOT2 / Fold change vs veh, CNOT2 / RFU, ZNF268 / Fold change vs veh, ZNF268 / Fold change vs veh, ZNF507 / RFU, DGCR2 / Fold change vs veh, DGCR2 / RFU, WDSUB1 / Fold change vs veh, WDSUB1 / Fold change vs veh, HSP90B1 /// MIR3652 / RFU, ADSS / Fold change vs veh, ADSS / RFU, GK / Fold change vs veh, GK / RFU, ZNF148 / Fold change vs veh, ZNF148 / RFU, TAF9 / Fold change vs veh, TAF9 / RFU, SLC1A5 / Fold change vs veh, SLC1A5 / RFU, SLMO2 / Fold change vs veh, SLMO2 / RFU, ABCC4 / Fold change vs veh, ABCC4 / RFU, LOC101060439 /// RAP1B / Fold change vs veh, LOC101060439 /// RAP1B / RFU, RFX7 / Fold change vs veh, RFX7 / RFU, GTPBP10 / Fold change vs veh, GTPBP10 / RFU, CNEP1R1 / Fold change vs veh, CNEP1R1 / RFU, BIVM-ERCC5 /// ERCC5 / Fold change vs veh, BIVM-ERCC5 /// ERCC5 / RFU, ILF3 / Fold change vs veh, ILF3 / RFU 11762660_at / Fold change /veh 11762660_at / RFU VCAN (11757783_s_at) / Fold change /veh VCAN (11757783_s_at) / RFU DDX43 (11728927_at) / Fold change /veh DDX43 (11728927_at) / RFU KRT8 (11758188_x_at) / Fold change /veh KRT8 (11758188_x_at) / RFU NKD1 (11759106_at) / Fold change /veh NKD1 (11759106_at) / RFU SRD5A1 (11742802_a_at) / Fold change /veh SRD5A1 (11742802_a_at) / RFU TPSAB1 /// TPSB2 (11721975_s_at) / Fold change /veh TPSAB1 /// TPSB2 (11721975_s_at) / RFU GSTM3 (11746129_a_at) / Fold change /veh GSTM3 (11746129_a_at) / RFU IL23R (11737362_x_at) / Fold change /veh IL23R (11737362_x_at) / RFU TMEM51 (11727254_a_at) / Fold change /veh TMEM51 (11727254_a_at) / RFU PIWIL2 (11732686_x_at) / Fold change /veh PIWIL2 (11732686_x_at) / RFU ORM1 (11744905_x_at) / Fold change /veh ORM1 (11744905_x_at) / RFU CCDC152 (11743942_at) / Fold change /veh CCDC152 (11743942_at) / RFU ECM1 (11717891_a_at) / Fold change /veh ECM1 (11717891_a_at) / RFU IL23R (11748794_a_at) / Fold change /veh IL23R (11748794_a_at) / RFU TNFAIP8L3 (11732012_x_at) / Fold change /veh TNFAIP8L3 (11732012_x_at) / RFU MBOAT4 (11741988_at) / Fold change /veh MBOAT4 (11741988_at) / RFU 11764193_at / Fold change /veh 11764193_at / RFU TMEM53 (11763286_at) / Fold change /veh TMEM53 (11763286_at) / RFU MAGEB2 (11727129_at) / Fold change /veh MAGEB2 (11727129_at) / RFU TMEM200A (11744735_a_at) / Fold change /veh TMEM200A (11744735_a_at) / RFU CCDC152 (11751479_a_at) / Fold change /veh CCDC152 (11751479_a_at) / RFU FAM211A (11726209_a_at) / Fold change /veh FAM211A (11726209_a_at) / RFU RGS16 (11746705_a_at) / Fold change /veh RGS16 (11746705_a_at) / RFU VCAN (11755009_s_at) / Fold change /veh VCAN (11755009_s_at) / RFU RHOB (11743442_s_at) / Fold change /veh RHOB (11743442_s_at) / RFU RGS16 (11720943_a_at) / Fold change /veh RGS16 (11720943_a_at) / RFU RGS16 (11720944_at) / Fold change /veh RGS16 (11720944_at) / RFU, VPS4B / Fold change vs veh, VPS4B / RFU, CREB1 / Fold change vs veh, CREB1 / RFU, DNAJC13 / Fold change vs veh, DNAJC13 / RFU, GNAQ / Fold change vs veh, GNAQ / RFU, CDK5R1 / Fold change vs veh, CDK5R1 / RFU, ZRANB3 / Fold change vs veh, ZRANB3 / RFU, CUL4A / Fold change vs veh, CUL4A / RFU, CCNY / Fold change vs veh, CCNY / RFU, UFL1 / Fold change vs veh, UFL1 / RFU, COG3 / Fold change vs veh, COG3 / RFU, DIAPH2 / Fold change vs veh, DIAPH2 / RFU, SKA2 / Fold change vs veh, SKA2 / RFU, AFF3 / Fold change vs veh, AFF3 / RFU, LMF1 / Fold change vs veh, LMF1 / RFU, IPO11 / Fold change vs veh, IPO11 / RFU, DFFB / Fold change vs veh, DFFB / RFU, FOXP1 / Fold change vs veh, FOXP1 / RFU, CARD8 / Fold change vs veh, CARD8 / RFU, STRN3 / Fold change vs veh, STRN3 / RFU, ADK / Fold change vs veh, ADK / RFU, RASSF2 / Fold change vs veh, RASSF2 / RFU, WIPF1 / Fold change vs veh, WIPF1 / RFU, LARP1B / Fold change vs veh, LARP1B / RFU, RASA1 / Fold change vs veh, RASA1 / RFU, RB1 / Fold change vs veh, RB1 / RFU, PPFIA1 / Fold change vs veh, PPFIA1 / RFU, MAT2A / Fold change vs veh, MAT2A / RFU, CCT5 / Fold change vs veh, CCT5 / RFU, WDR92 / Fold change vs veh, WDR92 / RFU, CUX1 / Fold change vs veh, CUX1 / RFU, TTC7A / Fold change vs veh, TTC7A / RFU, TMEM135 / Fold change vs veh, TMEM135 / RFU, DEPTOR / Fold change vs veh, DEPTOR / RFU, CPM / Fold change vs veh, CPM / RFU, DNAJB6 / Fold change vs veh, DNAJB6 / RFU, CACNA2D3 / Fold change vs veh, CACNA2D3 / RFU, DTX4 / Fold change vs veh, DTX4 / RFU, TFCP2 / Fold change vs veh, TFCP2 / RFU, GMCL1 /// GMCL1P1 / Fold change vs veh, GMCL1 /// GMCL1P1 / RFU, AEBP2 / Fold change vs veh, AEBP2 / RFU, SNHG1 /// SNORD22 /// SNORD25 /// SNORD26 /// SNORD27 /// SNORD28 /// SNORD29 /// SNORD31 / Fold change vs veh, SNHG1 /// SNORD22 /// SNORD25 /// SNORD26 /// SNORD27 /// SNORD28 /// SNORD29 /// SNORD31 / Fold change (Aza/veh), C12orf56 (ProbeSet 11735607_a_at) / Fold change (ACY-1035/veh), C12orf56 (ProbeSet 11735607_a_at) / Fold change (Aza/veh), FGFR1OP (ProbeSet 11751329_s_at) / Fold change (ACY-1035/veh), FGFR1OP (ProbeSet 11751329_s_at) / Fold change (Aza/veh), VPS36 (ProbeSet 11739960_a_at) / Fold change (ACY-1035/veh), VPS36 (ProbeSet 11739960_a_at) / RFU SYPL1 (11715823_x_at) / Fold change /veh SYPL1 (11715823_x_at) / RFU IGFBP7 (11715501_s_at) / Fold change /veh IGFBP7 (11715501_s_at) / RFU REEP3 (11722064_at) / Fold change /veh REEP3 (11722064_at) / RFU IGLL1 (11728026_x_at) / Fold change /veh IGLL1 (11728026_x_at): dose or concentration left out as unconfirmed. As to conditions: ProbeSet 11725902_s_at; LIST D.

For the molecule `Nc1ncn([C@@H]2O[C@H](CO)[C@@H](O)[C@H]2O)c(=O)n1` [azacitidine], the “Fold change vs veh, TMEM135” value turned out to be 0.57.
